Data: article PMC2577671, “Evaluation of Dimebon in cellular model of Huntington's disease” (Molecular Neurodegeneration, 2008)

Legend:
CYP450, 2C19 = target: T1, CYP450, 2C19 (Homo sapiens, UniProt P33261); assay: in vitro; set-up: MDS Pharma Lead Profiling + CYP450 screen, enzyme assays, per cent inhibition, duplicate
T1 construct: gene CYP2C19
Method: (§1) The activity of Dimebon against selected set of biochemical targets was performed by MDS Pharma Services . The Dimebon was provided to MDS Pharma as dry powder, dissolved in DMSO and tested in 10 μM concentrations. The standard Lead Profiling + CYP450 screen was performed according to MDS Pharma specifications with additional custom-chosen targets added to the screen as indicated. To further understand potential mechanisms responsible for clinical effects of Dimebon, we evaluated Dimebon against a set of selected biochemical targets. Dimebon evaluation was performed by MDS Pharma Services . The standard Lead Profiling + CYP450 screen was performed with additional custom-selected targets added to the screen. The results of the screen obtained at 10 μM of Dimebon are provided as Additional File 3. […] Low affinity (50–60% inhibition) interactions were also observed for CYP450, 2C19 receptor, voltage-gated L-type Ca^2+ channel, Dopamine D4.2 receptor, and Serotonin 5-HT1 receptor. […] Supplementary file 1750-1326-3-15-S3.pdf: Additional file 3 The results of Dimebon screening against a selected set of biochemical targets. The complete results obtained by MDS Pharma with a selected list of biochemical targets using 10 μM of Dimebon as a probe. The Cat numbers refer to the MDS Pharma Services assay specification. The receptors and species are listed. Dimebon was tested at 10 μM concentratio in duplicate. The % inhibition by Dimebon is shown numerically and graphically for each receptor. Significant targets (defined as % inhibition > 50%) are highlighted in yellow. Click here for file

CYP450, 2D6 = target: T2, CYP450, 2D6 (Homo sapiens, UniProt P10635); assay: in vitro; set-up: MDS Pharma Lead Profiling + CYP450 screen, enzyme assays, per cent inhibition, duplicate
T2 construct: gene CYP2D6
Method: as §1

CYP450, 3A4 = target: T3, CYP450, 3A4 (Homo sapiens, UniProt P08684); assay: in vitro; set-up: MDS Pharma Lead Profiling + CYP450 screen, enzyme assays, per cent inhibition, duplicate
T3 construct: gene CYP3A4
T3 sequence (P08684 whole entry): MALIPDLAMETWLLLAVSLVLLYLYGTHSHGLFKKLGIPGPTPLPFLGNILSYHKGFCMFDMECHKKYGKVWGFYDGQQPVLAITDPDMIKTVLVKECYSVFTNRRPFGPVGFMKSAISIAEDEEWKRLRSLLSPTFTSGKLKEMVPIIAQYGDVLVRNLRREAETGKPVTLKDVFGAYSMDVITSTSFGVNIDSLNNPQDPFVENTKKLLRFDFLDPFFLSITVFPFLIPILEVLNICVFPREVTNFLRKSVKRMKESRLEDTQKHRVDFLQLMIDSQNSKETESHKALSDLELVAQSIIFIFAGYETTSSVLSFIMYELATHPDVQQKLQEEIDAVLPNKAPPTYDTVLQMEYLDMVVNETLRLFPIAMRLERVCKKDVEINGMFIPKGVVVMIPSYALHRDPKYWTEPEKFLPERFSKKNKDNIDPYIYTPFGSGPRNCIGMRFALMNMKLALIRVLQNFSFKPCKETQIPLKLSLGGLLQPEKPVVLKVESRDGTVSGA
Method: as §1

CYP450, 1A2 = target: T4, CYP450, 1A2 (Homo sapiens, UniProt P05177); assay: in vitro; set-up: MDS Pharma Lead Profiling + CYP450 screen, enzyme assays, per cent inhibition, duplicate
T4 construct: gene CYP1A2
Method: as §1

CYP450, 2C9 = target: T5, CYP450, 2C9 (Homo sapiens, UniProt P11712); assay: in vitro; set-up: MDS Pharma Lead Profiling + CYP450 screen, enzyme assays, per cent inhibition, duplicate
T5 construct: gene CYP2C9
Method: as §1

Prostanoid EP4 = target: T6, Prostanoid EP4 (Homo sapiens, UniProt P35408); assay: biochemical; set-up: MDS Pharma Lead Profiling screen, binding assays, per cent inhibition, duplicate
T6 construct: gene PTGER4
T6 sequence (P35408 whole entry): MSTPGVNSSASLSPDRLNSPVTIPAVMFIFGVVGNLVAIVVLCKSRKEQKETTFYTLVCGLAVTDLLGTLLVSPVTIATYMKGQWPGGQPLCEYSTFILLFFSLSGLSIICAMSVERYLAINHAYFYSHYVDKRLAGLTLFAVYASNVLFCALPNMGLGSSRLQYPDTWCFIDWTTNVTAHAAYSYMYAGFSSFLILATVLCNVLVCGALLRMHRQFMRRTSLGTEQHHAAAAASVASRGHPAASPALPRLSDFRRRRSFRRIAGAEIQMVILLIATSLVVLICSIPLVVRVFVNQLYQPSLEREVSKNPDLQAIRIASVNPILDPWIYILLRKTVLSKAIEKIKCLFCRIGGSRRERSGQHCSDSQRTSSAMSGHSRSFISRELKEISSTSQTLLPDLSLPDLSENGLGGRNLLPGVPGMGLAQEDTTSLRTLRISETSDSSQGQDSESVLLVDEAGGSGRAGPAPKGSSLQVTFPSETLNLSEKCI
Method: as §1

Adrenergic beta1 = target: T7, Adrenergic beta1 (Homo sapiens, UniProt P08588); assay: biochemical; set-up: MDS Pharma Lead Profiling screen, binding assays, per cent inhibition, duplicate
T7 construct: gene ADRB1
T7 sequence (P08588 whole entry): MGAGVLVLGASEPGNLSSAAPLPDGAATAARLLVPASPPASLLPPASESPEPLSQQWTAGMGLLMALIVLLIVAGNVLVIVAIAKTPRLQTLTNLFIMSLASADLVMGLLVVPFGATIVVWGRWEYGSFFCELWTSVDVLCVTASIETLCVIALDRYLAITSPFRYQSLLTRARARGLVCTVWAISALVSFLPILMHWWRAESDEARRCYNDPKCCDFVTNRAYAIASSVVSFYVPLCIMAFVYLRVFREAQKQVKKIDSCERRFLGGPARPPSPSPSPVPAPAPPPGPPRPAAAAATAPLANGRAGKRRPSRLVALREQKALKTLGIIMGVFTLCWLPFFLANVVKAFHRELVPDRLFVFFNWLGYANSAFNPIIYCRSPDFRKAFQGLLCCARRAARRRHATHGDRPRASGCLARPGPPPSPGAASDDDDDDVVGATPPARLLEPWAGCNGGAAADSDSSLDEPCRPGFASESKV
Method: as §1

Sigma 2 = target: T8, Sigma 2 (Rattus norvegicus, UniProt Q5U3Y7); assay: biochemical; set-up: MDS Pharma Lead Profiling screen, binding assays, per cent inhibition, duplicate
T8 construct: gene Tmem97
T8 sequence (Q5U3Y7 whole entry): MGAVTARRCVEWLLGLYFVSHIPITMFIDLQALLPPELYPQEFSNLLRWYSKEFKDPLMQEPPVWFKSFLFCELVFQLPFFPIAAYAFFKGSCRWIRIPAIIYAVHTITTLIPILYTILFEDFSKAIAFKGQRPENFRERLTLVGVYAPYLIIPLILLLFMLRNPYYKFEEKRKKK
Method: as §1

Opiate mu (OP3, MOP) = target: T9, Opiate mu (OP3, MOP) (Homo sapiens, UniProt P35372); assay: biochemical; set-up: MDS Pharma Lead Profiling screen, binding assays, per cent inhibition, duplicate
T9 construct: gene OPRM1
Method: as §1

α2A-Adrenergic receptor [1] = target: T10, α2A-Adrenergic receptor (Homo sapiens, UniProt P08913); assay: biochemical; set-up: MDS Pharma Lead Profiling screen, binding assays, per cent inhibition, duplicate
T10 construct: gene ADRA2A
T10 sequence (P08913 whole entry): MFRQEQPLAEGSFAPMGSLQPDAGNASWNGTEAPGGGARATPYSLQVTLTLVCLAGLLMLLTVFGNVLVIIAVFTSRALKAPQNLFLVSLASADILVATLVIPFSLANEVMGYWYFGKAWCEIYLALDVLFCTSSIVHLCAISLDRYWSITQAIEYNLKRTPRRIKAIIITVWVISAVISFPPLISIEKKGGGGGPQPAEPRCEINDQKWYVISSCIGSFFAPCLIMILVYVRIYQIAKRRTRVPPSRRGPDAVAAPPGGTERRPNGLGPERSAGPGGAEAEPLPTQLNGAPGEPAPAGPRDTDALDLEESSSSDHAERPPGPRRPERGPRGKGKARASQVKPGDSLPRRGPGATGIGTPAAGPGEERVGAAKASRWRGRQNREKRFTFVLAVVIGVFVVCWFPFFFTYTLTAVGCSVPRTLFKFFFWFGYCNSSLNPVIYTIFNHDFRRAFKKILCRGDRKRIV
Method: as §1

Dopamine D1 = target: T11, Dopamine D1 (Homo sapiens, UniProt P21728); assay: biochemical; set-up: MDS Pharma Lead Profiling screen, binding assays, per cent inhibition, duplicate
T11 construct: gene DRD1
T11 sequence (P21728 whole entry): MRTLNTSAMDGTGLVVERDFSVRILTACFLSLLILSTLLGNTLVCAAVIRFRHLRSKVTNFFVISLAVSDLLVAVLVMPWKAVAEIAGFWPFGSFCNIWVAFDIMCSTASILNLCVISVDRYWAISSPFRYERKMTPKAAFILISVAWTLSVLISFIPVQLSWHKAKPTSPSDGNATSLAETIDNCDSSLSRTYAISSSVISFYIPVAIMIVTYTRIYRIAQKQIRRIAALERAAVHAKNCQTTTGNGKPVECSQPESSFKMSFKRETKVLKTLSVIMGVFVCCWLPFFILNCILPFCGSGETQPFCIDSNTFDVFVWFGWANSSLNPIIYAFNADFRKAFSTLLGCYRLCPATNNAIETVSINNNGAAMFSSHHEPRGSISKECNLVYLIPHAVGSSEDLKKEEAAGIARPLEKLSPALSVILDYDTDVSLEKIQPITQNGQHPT
Method: as §1

Neuropeptide Y Y2 = target: T12, Neuropeptide Y Y2 (Homo sapiens, UniProt P49146); assay: biochemical; set-up: MDS Pharma Lead Profiling screen, binding assays, per cent inhibition, duplicate
T12 construct: gene NPY2R
Method: as §1

Muscarinic M3 = target: T13, Muscarinic M3 (Homo sapiens, UniProt P20309); assay: biochemical; set-up: MDS Pharma Lead Profiling screen, binding assays, per cent inhibition, duplicate
T13 construct: gene CHRM3
Method: as §1

Dopamine D2S receptor = target: T14, Dopamine D2S receptor (Homo sapiens, UniProt P14416); assay: biochemical; set-up: MDS Pharma Lead Profiling screen, binding assays, per cent inhibition, duplicate
T14 construct: gene DRD2; D2S
T14 sequence (P14416 1-414 isoform P14416-2): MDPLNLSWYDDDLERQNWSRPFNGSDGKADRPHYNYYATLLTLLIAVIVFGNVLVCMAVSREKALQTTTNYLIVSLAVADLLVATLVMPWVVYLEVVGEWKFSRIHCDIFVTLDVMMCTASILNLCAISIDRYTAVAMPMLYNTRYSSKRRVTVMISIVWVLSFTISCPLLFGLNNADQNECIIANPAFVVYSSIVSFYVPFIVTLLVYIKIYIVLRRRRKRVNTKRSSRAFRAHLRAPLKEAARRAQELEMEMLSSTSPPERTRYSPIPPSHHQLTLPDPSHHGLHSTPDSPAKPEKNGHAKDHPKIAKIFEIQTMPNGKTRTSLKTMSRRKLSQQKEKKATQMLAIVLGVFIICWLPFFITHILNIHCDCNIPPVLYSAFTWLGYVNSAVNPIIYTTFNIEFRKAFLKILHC
Method: as §1

Histamine H1 receptor [2] = target: T15, Histamine H1 receptor (Homo sapiens, UniProt P35367); assay: biochemical; set-up: MDS Pharma Lead Profiling screen, binding assays, per cent inhibition, duplicate
T15 construct: gene HRH1
T15 sequence (P35367 whole entry): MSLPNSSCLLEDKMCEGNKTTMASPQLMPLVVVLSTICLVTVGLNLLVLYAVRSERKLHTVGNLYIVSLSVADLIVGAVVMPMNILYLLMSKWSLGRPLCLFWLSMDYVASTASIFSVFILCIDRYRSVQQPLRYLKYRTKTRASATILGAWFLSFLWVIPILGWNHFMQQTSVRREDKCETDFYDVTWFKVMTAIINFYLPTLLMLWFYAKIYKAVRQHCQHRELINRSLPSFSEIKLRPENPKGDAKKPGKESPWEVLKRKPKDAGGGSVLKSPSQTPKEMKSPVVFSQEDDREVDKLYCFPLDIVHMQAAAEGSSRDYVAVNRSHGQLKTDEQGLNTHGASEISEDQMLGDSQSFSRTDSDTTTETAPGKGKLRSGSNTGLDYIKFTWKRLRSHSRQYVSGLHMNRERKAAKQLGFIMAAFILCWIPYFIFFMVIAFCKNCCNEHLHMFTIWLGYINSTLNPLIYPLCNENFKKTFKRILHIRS
Method: as §1

Adenosine A3 = target: T16, Adenosine A3 (Homo sapiens, UniProt P0DMS8); assay: biochemical; set-up: MDS Pharma Lead Profiling screen, binding assays, per cent inhibition, duplicate
T16 construct: gene ADORA3
Method: as §1

Serotonin 5-HT4 = target: T17, Serotonin 5-HT4 (Cavia porcellus, UniProt O70528); assay: biochemical; set-up: MDS Pharma Lead Profiling screen, binding assays, per cent inhibition, duplicate
T17 construct: gene HTR4
T17 sequence (O70528 whole entry): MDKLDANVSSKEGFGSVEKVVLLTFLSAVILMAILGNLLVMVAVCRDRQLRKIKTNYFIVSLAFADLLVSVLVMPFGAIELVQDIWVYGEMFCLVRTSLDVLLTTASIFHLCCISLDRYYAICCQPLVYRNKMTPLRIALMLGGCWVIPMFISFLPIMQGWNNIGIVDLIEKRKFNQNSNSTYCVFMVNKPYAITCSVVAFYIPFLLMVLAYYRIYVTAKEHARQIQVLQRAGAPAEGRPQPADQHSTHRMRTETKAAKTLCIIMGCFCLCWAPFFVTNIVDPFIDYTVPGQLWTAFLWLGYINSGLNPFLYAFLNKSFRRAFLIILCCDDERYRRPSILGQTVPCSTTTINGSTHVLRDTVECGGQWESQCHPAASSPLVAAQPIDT
Method: as §1

[3] = target: T18, Serotonin 5-HT2c receptor (Homo sapiens, UniProt P28335); assay: MDS Pharma Services binding screen at […]
T18 construct: gene HTR2C

α2A-Adrenergic receptor [4] = target: T10, α2A-Adrenergic receptor; assay: MDS Pharma Services binding screen at […]
Histamine H1 receptor [5] = target: T15, Histamine H1 receptor; assay: MDS Pharma Services binding screen at […]
α1A-Adrenergic receptor = target: T19, α1A-Adrenergic receptor (Rattus norvegicus, UniProt P43140); assay: MDS Pharma Services binding screen at […]
T19 construct: gene Adra1a

Histamine H2 receptor = target: T20, Histamine H2 receptor (Homo sapiens, UniProt P25021); assay: MDS Pharma Services binding screen at […]
T20 construct: gene HRH2
T20 sequence (P25021 whole entry): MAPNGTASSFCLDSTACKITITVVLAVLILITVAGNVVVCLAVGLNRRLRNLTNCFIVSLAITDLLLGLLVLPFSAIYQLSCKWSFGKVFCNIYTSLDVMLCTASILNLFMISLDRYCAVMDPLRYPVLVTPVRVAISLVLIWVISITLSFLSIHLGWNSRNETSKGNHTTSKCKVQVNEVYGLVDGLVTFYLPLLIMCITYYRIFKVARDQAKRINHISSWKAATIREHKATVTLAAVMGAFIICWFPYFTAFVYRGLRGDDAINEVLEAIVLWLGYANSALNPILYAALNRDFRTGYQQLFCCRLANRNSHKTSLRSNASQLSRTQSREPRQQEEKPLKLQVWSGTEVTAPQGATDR

T1 sequence (P33261 whole entry): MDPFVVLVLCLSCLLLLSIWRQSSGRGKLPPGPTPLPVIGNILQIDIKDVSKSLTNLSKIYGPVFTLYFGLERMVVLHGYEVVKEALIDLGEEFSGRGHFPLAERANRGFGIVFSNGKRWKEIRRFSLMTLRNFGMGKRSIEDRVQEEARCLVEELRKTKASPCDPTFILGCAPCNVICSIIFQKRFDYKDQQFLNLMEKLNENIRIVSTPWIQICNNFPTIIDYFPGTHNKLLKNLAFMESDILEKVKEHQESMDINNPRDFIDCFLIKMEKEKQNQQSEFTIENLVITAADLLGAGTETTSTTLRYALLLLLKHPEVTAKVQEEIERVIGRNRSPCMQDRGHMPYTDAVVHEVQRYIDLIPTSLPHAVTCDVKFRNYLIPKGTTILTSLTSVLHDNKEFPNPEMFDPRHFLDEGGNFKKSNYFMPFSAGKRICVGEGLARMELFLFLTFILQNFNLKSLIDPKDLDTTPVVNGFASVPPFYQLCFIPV

Which inhibition at 10 µM (CYP450, 2C19) does the source give for `Cc1ccc2c(c1)c1c(n2CCc2ccc(C)nc2)CCN(C)C1` [Dimebon, 2,3,4,5-Tetrahydro-2,8-dimethyl-5-(2-(6-methyl-3-pyridyl)ethyl)-1H-pyrido(4,3-b)indole] here?
The inhibition at 10 µM was 55%.

And the inhibition at 10 µM (CYP450, 2D6)?
The inhibition at 10 µM was 16%.

What about the inhibition at 10 µM (CYP450, 3A4) of the same molecule?
Its inhibition at 10 µM is 22%.

And the inhibition at 10 µM (CYP450, 1A2)?
The inhibition at 10 µM was 5%.

And the inhibition at 10 µM (CYP450, 2C9)?
The inhibition at 10 µM was 2%.

And the inhibition at 10 µM (Prostanoid EP4)?
Its inhibition at 10 µM is 1%.

What about the inhibition at 10 µM (Adrenergic beta1) of the same molecule?
Its inhibition at 10 µM is -7%.

And the inhibition at 10 µM (Sigma 2)?
Its inhibition at 10 µM is 22%.

What about the inhibition at 10 µM (Opiate mu (OP3, MOP)) of the same molecule?
The inhibition at 10 µM was 10%.

What about the inhibition at 10 µM (α2A-Adrenergic receptor [1]) of the same molecule?
The inhibition at 10 µM was 97%.

And the inhibition at 10 µM (Dopamine D1)?
Its inhibition at 10 µM is 70%.

What about the inhibition at 10 µM (Neuropeptide Y Y2) of the same molecule?
Its inhibition at 10 µM is -5%.

And the inhibition at 10 µM (Muscarinic M3)?
Its inhibition at 10 µM is 7%.

And the inhibition at 10 µM (Dopamine D2S receptor)?
The inhibition at 10 µM was 83%.

And the inhibition at 10 µM (Histamine H1 receptor [2])?
Its inhibition at 10 µM is 101%.

And the inhibition at 10 µM (Adenosine A3)?
Its inhibition at 10 µM is 6%.

What about the inhibition at 10 µM (Serotonin 5-HT4) of the same molecule?
Its inhibition at 10 µM is 17%.

What about the inhibition at 10 µM [3] of the same molecule?
The inhibition at 10 µM was greater than 90%.

And the inhibition at 10 µM (α2A-Adrenergic receptor [4])?
Its inhibition at 10 µM is greater than 90%.

And the inhibition at 10 µM (Histamine H1 receptor [5])?
The inhibition at 10 µM was greater than 90%.

What about the inhibition at 10 µM (α1A-Adrenergic receptor) of the same molecule?
The inhibition at 10 µM was greater than 90%.

What about the inhibition at 10 µM (Histamine H2 receptor) of the same molecule?
Its inhibition at 10 µM is greater than 90%.
